Key:
Type in all cases: in vivo
[1] = system: field corn (Zea mays L., var. Dekalb 535, CORN); assay: Post-emerge test, crop safety; conditions: post-emerge, 14 days after application, rating scale 0-100
Method in brief: (§1)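 Compounds in acetone were track-sprayed at 187 l/ha, 15–1000 g ai/ha, onto sandy loam pots. Pre-emerge seeds were sown one day before spraying, with surface watering afterwards. Post-emerge plants were at the 2–3 leaf stage and sprayed with 0.25% v/v non-ionic surfactant. Injury was rated 0–100 at 14 days.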

[2] = system: upland rice (Oryza sp., var. Tebonnet, RICE); assay: Post-emerge test, crop safety; conditions: post-emerge, 14 days after application, rating scale 0-100
Method in brief: as §1

[3] = system: field corn (Zea mays L., var. Dekalb 535, CORN); assay: Pre-emerge test, crop safety; conditions: crop damage rating 0-100, 14 days after application
Method in brief: (§2)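 Fourteen days after spraying, crop and weed injury was graded visually from 0, no effect, to 100, every plant dead. Test substances were dissolved in acetone and applied at 15–1000 g ai/ha with a flat-fan nozzle. Application was either pre-emergence, one day after sowing, or post-emergence at the 2–3 leaf stage.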

[4] = system: upland rice (Oryza sp., var. Tebonnet, RICE); assay: Pre-emerge test, crop safety; conditions: crop damage rating 0-100, 14 days after application
Method in brief: as §2

[5] = system: green foxtail (Setaria viridis, SETVI); assay: Post-emerge test, greenhouse herbicide activity screening; conditions: post-emerge, 14 days after application, rating scale 0-100
Method in brief: (§3)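 Herbicidal damage is scored 0 (none) to 100 (complete plant death) two weeks after a simulated field spray. Rates span 15–1000 g ai/ha, delivered in acetone at 187 l/ha. For post-emergence treatments, plants have 2–3 leaves and the spray carries 0.25% v/v non-ionic surfactant.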

[6] = system: johnsongrass (Sorghum halepense, SORHA); assay: as above; conditions: post-emerge, 14 days after application, rating scale 0-100
Method in brief: as §3

[7] = system: barnyardgrass (Echinochloa crus-galli, ECHCG); assay: as above; conditions: post-emerge, 14 days after application, rating scale 0-100
Method in brief: as §3

[8] = system: lambsquarters (Chenopodium album, CHEAL); assay: as above; conditions: post-emerge, 14 days after application, rating scale 0-100
Method in brief: as §3

[9] = system: large crabgrass (Digitaria sanguinalis, DIGSA); assay: as above; conditions: post-emerge, 14 days after application, rating scale 0-100
Method in brief: as §3

[10] = system: ivyleaf morningglory (Ipomoea hederacea, IPOHE); assay: as above; conditions: post-emerge, 14 days after application, rating scale 0-100
Method in brief: as §3

[11] = system: sicklepod (Cassia obtusifolia, CASOB); assay: as above; conditions: post-emerge, 14 days after application, rating scale 0-100
Method in brief: as §3

[12] = system: redroot pigweed (Amaranthus retroflexus, AMARE); assay: as above; conditions: post-emerge, 14 days after application
Method in brief: as §3

[13] = system: velvetleaf (Abutilon theophrasti, ABUTH); assay: as above; conditions: post-emerge, 14 days after application, rating scale 0-100
Method in brief: as §3

[14] = system: redroot pigweed (Amaranthus retroflexus, AMARE); assay: Pre-emerge test, greenhouse herbicide activity screening; conditions: phytotoxicity rating 0-100, 14 days after application
Method in brief: as §1

[15] = system: green foxtail (Setaria viridis, SETVI); assay: as above; conditions: phytotoxicity rating 0-100, 14 days after application
Method in brief: as §1

[16] = system: johnsongrass (Sorghum halepense, SORHA); assay: as above; conditions: phytotoxicity rating 0-100, 14 days after application
Method in brief: as §1

[17] = system: barnyardgrass (Echinochloa crus-galli, ECHCG); assay: as above; conditions: phytotoxicity rating 0-100, 14 days after application
Method in brief: as §1

[18] = system: lambsquarters (Chenopodium album, CHEAL); assay: as above; conditions: phytotoxicity rating 0-100, 14 days after application
Method in brief: as §1

[19] = system: large crabgrass (Digitaria sanguinalis, DIGSA); assay: as above; conditions: phytotoxicity rating 0-100, 14 days after application
Method in brief: as §1

[20] = system: ivyleaf morningglory (Ipomoea hederacea, IPOHE); assay: as above; conditions: phytotoxicity rating 0-100, 14 days after application
Method in brief: as §1

[21] = system: sicklepod (Cassia obtusifolia, CASOB); assay: as above; conditions: phytotoxicity rating 0-100, 14 days after application
Method in brief: as §1

[22] = system: velvetleaf (Abutilon theophrasti, ABUTH); assay: as above; conditions: phytotoxicity rating 0-100, 14 days after application
Method in brief: as §1

[23] = 63 g ai/ha, rating scale 0-100 (0 no damage, 100 complete death)
[24] = 250 g ai/ha, rating scale 0-100

COc1c(Cl)cc(F)c(-n2c(=O)cc(C(F)(F)F)n(C)c2=O)c1NC(=O)OCc1ccc(Cl)c(Cl)c1 [4-32]
30: phytotoxicity rating CORN (crop damage) ([1]; 250 g ai/ha) | Pre-emerge Herbicidal Activity RICE ([4]; 250 g ai/ha) | phytotoxicity rating SETVI ([5]; 63 g ai/ha) | phytotoxicity rating SORHA ([6]; 250 g ai/ha) | Pre-emerge Herbicidal Activity SETVI ([15]; 63 g ai/ha) | Pre-emerge Herbicidal Activity SORHA ([16]; 250 g ai/ha) | Pre-emerge Herbicidal Activity CASOB ([21]; 250 g ai/ha)
95: Pre-emerge Herbicidal Activity SETVI ([15]; 250 g ai/ha)
40: phytotoxicity rating RICE (crop damage) ([2]; 250 g ai/ha) | Pre-emerge Herbicidal Activity IPOHE ([20]; 250 g ai/ha)
90: phytotoxicity rating ABUTH ([13]; 63 g ai/ha)
20: phytotoxicity rating CORN (crop damage) ([1]; 63 g ai/ha) | phytotoxicity rating RICE (crop damage) ([2]; 63 g ai/ha) | phytotoxicity rating ECHCG ([7]; 250 g ai/ha) | phytotoxicity rating DIGSA ([9]; 250 g ai/ha) | Pre-emerge Herbicidal Activity DIGSA ([19]; 63 g ai/ha)
0: Pre-emerge Herbicidal Activity CORN ([3]; 63 g ai/ha) | Pre-emerge Herbicidal Activity RICE ([4]; 63 g ai/ha) | phytotoxicity rating ECHCG ([7]; 63 g ai/ha) | Pre-emerge Herbicidal Activity SORHA ([16]; 63 g ai/ha) | Pre-emerge Herbicidal Activity ECHCG ([17]; 63 g ai/ha) | Pre-emerge Herbicidal Activity IPOHE ([20]; 63 g ai/ha) | Pre-emerge Herbicidal Activity CASOB ([21]; 63 g ai/ha) | Pre-emerge Herbicidal Activity ABUTH ([22]; 63 g ai/ha)
100: phytotoxicity rating CHEAL ([8]; 63 g ai/ha) | phytotoxicity rating CHEAL ([8]; 250 g ai/ha) | phytotoxicity rating IPOHE ([10]; 63 g ai/ha) | phytotoxicity rating IPOHE ([10]; 250 g ai/ha) | phytotoxicity rating AMARE [12, 23] | phytotoxicity rating AMARE [12, 24] | phytotoxicity rating ABUTH ([13]; 250 g ai/ha) | Pre-emerge Herbicidal Activity AMARE ([14]; 250 g ai/ha) | Pre-emerge Herbicidal Activity CHEAL ([18]; 250 g ai/ha)
10: Pre-emerge Herbicidal Activity CORN ([3]; 250 g ai/ha) | phytotoxicity rating SORHA ([6]; 63 g ai/ha) | phytotoxicity rating DIGSA ([9]; 63 g ai/ha)
80: phytotoxicity rating CASOB ([11]; 63 g ai/ha) | phytotoxicity rating CASOB ([11]; 250 g ai/ha) | Pre-emerge Herbicidal Activity CHEAL ([18]; 63 g ai/ha) | Pre-emerge Herbicidal Activity DIGSA ([19]; 250 g ai/ha)
70: Pre-emerge Herbicidal Activity ABUTH ([22]; 250 g ai/ha)
50: phytotoxicity rating SETVI ([5]; 250 g ai/ha) | Pre-emerge Herbicidal Activity AMARE ([14]; 63 g ai/ha) | Pre-emerge Herbicidal Activity ECHCG ([17]; 250 g ai/ha)

COc1c(Cl)cc(F)c(-n2c(=O)cc(C(F)(F)F)n(C)c2=O)c1NC(=O)OCc1ccccc1C(F)(F)F [4-33]
0: phytotoxicity rating SORHA ([6]; 63 g ai/ha) | Pre-emerge Herbicidal Activity IPOHE ([20]; 63 g ai/ha) | Pre-emerge Herbicidal Activity CASOB ([21]; 63 g ai/ha)
90: phytotoxicity rating CHEAL ([8]; 63 g ai/ha) | Pre-emerge Herbicidal Activity DIGSA ([19]; 250 g ai/ha)
15: phytotoxicity rating CORN (crop damage) ([1]; 63 g ai/ha)
70: phytotoxicity rating CASOB ([11]; 250 g ai/ha) | Pre-emerge Herbicidal Activity IPOHE ([20]; 250 g ai/ha)
45: Pre-emerge Herbicidal Activity DIGSA ([19]; 63 g ai/ha)
30: phytotoxicity rating RICE (crop damage) ([2]; 63 g ai/ha) | phytotoxicity rating SETVI ([5]; 63 g ai/ha) | phytotoxicity rating SORHA ([6]; 250 g ai/ha) | phytotoxicity rating DIGSA ([9]; 250 g ai/ha) | phytotoxicity rating CASOB ([11]; 63 g ai/ha) | Pre-emerge Herbicidal Activity SORHA ([16]; 63 g ai/ha)
10: Pre-emerge Herbicidal Activity CORN ([3]; 63 g ai/ha) | phytotoxicity rating ECHCG ([7]; 63 g ai/ha) | phytotoxicity rating DIGSA ([9]; 63 g ai/ha)
25: phytotoxicity rating CORN (crop damage) ([1]; 250 g ai/ha)
40: phytotoxicity rating RICE (crop damage) ([2]; 250 g ai/ha) | Pre-emerge Herbicidal Activity RICE ([4]; 250 g ai/ha) | phytotoxicity rating SETVI ([5]; 250 g ai/ha)
80: Pre-emerge Herbicidal Activity SORHA ([16]; 250 g ai/ha) | Pre-emerge Herbicidal Activity ECHCG ([17]; 250 g ai/ha)
100: phytotoxicity rating CHEAL ([8]; 250 g ai/ha) | phytotoxicity rating IPOHE ([10]; 63 g ai/ha) | phytotoxicity rating IPOHE ([10]; 250 g ai/ha) | phytotoxicity rating AMARE [12, 23] | phytotoxicity rating AMARE [12, 24] | phytotoxicity rating ABUTH ([13]; 63 g ai/ha) | phytotoxicity rating ABUTH ([13]; 250 g ai/ha) | Pre-emerge Herbicidal Activity AMARE ([14]; 63 g ai/ha) | Pre-emerge Herbicidal Activity AMARE ([14]; 250 g ai/ha) | Pre-emerge Herbicidal Activity SETVI ([15]; 63 g ai/ha) | Pre-emerge Herbicidal Activity SETVI ([15]; 250 g ai/ha) | Pre-emerge Herbicidal Activity CHEAL ([18]; 63 g ai/ha) | Pre-emerge Herbicidal Activity CHEAL ([18]; 250 g ai/ha) | Pre-emerge Herbicidal Activity ABUTH ([22]; 250 g ai/ha)
50: Pre-emerge Herbicidal Activity CORN ([3]; 250 g ai/ha) | Pre-emerge Herbicidal Activity CASOB ([21]; 250 g ai/ha) | Pre-emerge Herbicidal Activity ABUTH ([22]; 63 g ai/ha)
20: Pre-emerge Herbicidal Activity RICE ([4]; 63 g ai/ha) | phytotoxicity rating ECHCG ([7]; 250 g ai/ha) | Pre-emerge Herbicidal Activity ECHCG ([17]; 63 g ai/ha)
